PubChem BioAssay (NCI)
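Following 48 hours of exposure in 96-well plates, responses at five concentrations were used to interpolate endpoints linearly. Abbreviation: GI50, concentration required for 50% inhibition of growth. TGI is the concentration that stops growth completely.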

test system: SK-MEL-2 melanoma; assay: growth of human tumour cells (NCI), 48 h

Row | SMILES | GI50 | TGI
1 | O=C(NC[C@H](O)CN1CCc2ccccc2C1)c1cc(NC2COC2)ncn1 | 15.9 µM | 51.7 µM
2 | COc1cc(Cl)cc(-c2nn(-c3cccc(NC(=O)c4ccc(N5CCOCC5)c(C(F)(F)F)c4)c3)cc2-c2ccncc2)c1 | 21.1 µM | > 100 µM
3 | OC[C@H]1O[C@@H]2O[C@@](COCc3ccccc3)([C@H](OCc3ccccc3)[C@H]2O)[C@@H]1OCc1ccccc1 | – | 32 µM
4 | Nc1ncc(-c2ccc3ncnc(Nc4ccc(F)c(Cl)c4)c3c2)cn1 | 18.2 µM | 39.9 µM

test system: U251 CNS; assay: growth of human tumour cells (NCI), 48 h

Row | SMILES | GI50 | TGI
5 | O=C(NC[C@H](O)CN1CCc2ccccc2C1)c1cc(NC2COC2)ncn1 | 13 µM | > 100 µM
6 | COc1cc(Cl)cc(-c2nn(-c3cccc(NC(=O)c4ccc(N5CCOCC5)c(C(F)(F)F)c4)c3)cc2-c2ccncc2)c1 | 5.03 µM | > 100 µM
7 | OC[C@H]1O[C@@H]2O[C@@](COCc3ccccc3)([C@H](OCc3ccccc3)[C@H]2O)[C@@H]1OCc1ccccc1 | – | 29.5 µM
8 | Nc1ncc(-c2ccc3ncnc(Nc4ccc(F)c(Cl)c4)c3c2)cn1 | 1.72 µM | 4.24 µM

test system: SF-268 CNS; assay: growth of human tumour cells (NCI), 48 h

Row | SMILES | GI50 | TGI
9 | O=C(NC[C@H](O)CN1CCc2ccccc2C1)c1cc(NC2COC2)ncn1 | 14.9 µM | 97.5 µM
10 | COc1cc(Cl)cc(-c2nn(-c3cccc(NC(=O)c4ccc(N5CCOCC5)c(C(F)(F)F)c4)c3)cc2-c2ccncc2)c1 | > 100 µM | > 100 µM
11 | OC[C@H]1O[C@@H]2O[C@@](COCc3ccccc3)([C@H](OCc3ccccc3)[C@H]2O)[C@@H]1OCc1ccccc1 | – | 32.3 µM
12 | Nc1ncc(-c2ccc3ncnc(Nc4ccc(F)c(Cl)c4)c3c2)cn1 | 2.48 µM | 68.5 µM

test system: SK-MEL-5 melanoma; assay: growth of human tumour cells (NCI), 48 h

Row | SMILES | GI50 | TGI
13 | O=C(NC[C@H](O)CN1CCc2ccccc2C1)c1cc(NC2COC2)ncn1 | 11.4 µM | 24.5 µM
14 | COc1cc(Cl)cc(-c2nn(-c3cccc(NC(=O)c4ccc(N5CCOCC5)c(C(F)(F)F)c4)c3)cc2-c2ccncc2)c1 | 16.5 µM | > 100 µM
15 | OC[C@H]1O[C@@H]2O[C@@](COCc3ccccc3)([C@H](OCc3ccccc3)[C@H]2O)[C@@H]1OCc1ccccc1 | – | 29.2 µM
16 | Nc1ncc(-c2ccc3ncnc(Nc4ccc(F)c(Cl)c4)c3c2)cn1 | 2.84 µM | 9.69 µM

test system: HT29 colon; assay: growth of human tumour cells (NCI), 48 h

Row | SMILES | GI50 | TGI
17 | O=C(NC[C@H](O)CN1CCc2ccccc2C1)c1cc(NC2COC2)ncn1 | 20.8 µM | > 100 µM
18 | COc1cc(Cl)cc(-c2nn(-c3cccc(NC(=O)c4ccc(N5CCOCC5)c(C(F)(F)F)c4)c3)cc2-c2ccncc2)c1 | 4.09 µM | 38 µM
19 | OC[C@H]1O[C@@H]2O[C@@](COCc3ccccc3)([C@H](OCc3ccccc3)[C@H]2O)[C@@H]1OCc1ccccc1 | – | 17.3 µM
20 | Nc1ncc(-c2ccc3ncnc(Nc4ccc(F)c(Cl)c4)c3c2)cn1 | 2.31 µM | 19.3 µM

test system: DU-145 prostate; assay: growth of human tumour cells (NCI), 48 h

Row | SMILES | GI50 | TGI
21 | O=C(NC[C@H](O)CN1CCc2ccccc2C1)c1cc(NC2COC2)ncn1 | 18.3 µM | > 100 µM
22 | COc1cc(Cl)cc(-c2nn(-c3cccc(NC(=O)c4ccc(N5CCOCC5)c(C(F)(F)F)c4)c3)cc2-c2ccncc2)c1 | > 100 µM | > 100 µM
23 | OC[C@H]1O[C@@H]2O[C@@](COCc3ccccc3)([C@H](OCc3ccccc3)[C@H]2O)[C@@H]1OCc1ccccc1 | – | 30.1 µM
24 | Nc1ncc(-c2ccc3ncnc(Nc4ccc(F)c(Cl)c4)c3c2)cn1 | 0.759 µM | > 100 µM

test system: MDA-MB-231 breast; assay: growth of human tumour cells (NCI), 48 h

Row | SMILES | GI50 | TGI
25 | O=C(NC[C@H](O)CN1CCc2ccccc2C1)c1cc(NC2COC2)ncn1 | 16.1 µM | 46.9 µM
26 | COc1cc(Cl)cc(-c2nn(-c3cccc(NC(=O)c4ccc(N5CCOCC5)c(C(F)(F)F)c4)c3)cc2-c2ccncc2)c1 | 2.83 µM | 32.4 µM
27 | OC[C@H]1O[C@@H]2O[C@@](COCc3ccccc3)([C@H](OCc3ccccc3)[C@H]2O)[C@@H]1OCc1ccccc1 | – | 29.3 µM
28 | Nc1ncc(-c2ccc3ncnc(Nc4ccc(F)c(Cl)c4)c3c2)cn1 | 1.44 µM | 3.8 µM

test system: SN12C renal; assay: growth of human tumour cells (NCI), 48 h

Row | SMILES | GI50 | TGI
29 | O=C(NC[C@H](O)CN1CCc2ccccc2C1)c1cc(NC2COC2)ncn1 | 18.5 µM | > 100 µM
30 | COc1cc(Cl)cc(-c2nn(-c3cccc(NC(=O)c4ccc(N5CCOCC5)c(C(F)(F)F)c4)c3)cc2-c2ccncc2)c1 | > 100 µM | > 100 µM
31 | OC[C@H]1O[C@@H]2O[C@@](COCc3ccccc3)([C@H](OCc3ccccc3)[C@H]2O)[C@@H]1OCc1ccccc1 | – | 29.2 µM
32 | Nc1ncc(-c2ccc3ncnc(Nc4ccc(F)c(Cl)c4)c3c2)cn1 | 1.58 µM | 4.1 µM

test system: SNB-75 CNS; assay: growth of human tumour cells (NCI), 48 h

Row | SMILES | GI50 | TGI
33 | O=C(NC[C@H](O)CN1CCc2ccccc2C1)c1cc(NC2COC2)ncn1 | 12.5 µM | 64.5 µM
34 | COc1cc(Cl)cc(-c2nn(-c3cccc(NC(=O)c4ccc(N5CCOCC5)c(C(F)(F)F)c4)c3)cc2-c2ccncc2)c1 | 2.08 µM | > 100 µM
35 | OC[C@H]1O[C@@H]2O[C@@](COCc3ccccc3)([C@H](OCc3ccccc3)[C@H]2O)[C@@H]1OCc1ccccc1 | – | 29.7 µM
36 | Nc1ncc(-c2ccc3ncnc(Nc4ccc(F)c(Cl)c4)c3c2)cn1 | 0.544 µM | 2.43 µM

test system: SK-OV-3 ovarian; assay: growth of human tumour cells (NCI), 48 h

Row | SMILES | GI50 | TGI
37 | O=C(NC[C@H](O)CN1CCc2ccccc2C1)c1cc(NC2COC2)ncn1 | 77.2 µM | > 100 µM
38 | COc1cc(Cl)cc(-c2nn(-c3cccc(NC(=O)c4ccc(N5CCOCC5)c(C(F)(F)F)c4)c3)cc2-c2ccncc2)c1 | > 100 µM | > 100 µM
39 | OC[C@H]1O[C@@H]2O[C@@](COCc3ccccc3)([C@H](OCc3ccccc3)[C@H]2O)[C@@H]1OCc1ccccc1 | – | 27.9 µM
40 | Nc1ncc(-c2ccc3ncnc(Nc4ccc(F)c(Cl)c4)c3c2)cn1 | 0.634 µM | 3.96 µM

test system: NCI-H226 lung; assay: growth of human tumour cells (NCI), 48 h

Row | SMILES | GI50 | TGI
41 | O=C(NC[C@H](O)CN1CCc2ccccc2C1)c1cc(NC2COC2)ncn1 | 9.88 µM | 40.2 µM
42 | COc1cc(Cl)cc(-c2nn(-c3cccc(NC(=O)c4ccc(N5CCOCC5)c(C(F)(F)F)c4)c3)cc2-c2ccncc2)c1 | 93.4 µM | > 100 µM
43 | Nc1ncc(-c2ccc3ncnc(Nc4ccc(F)c(Cl)c4)c3c2)cn1 | 2.07 µM | 4.67 µM

test system: MDA-MB-435; assay: growth of human tumour cells (NCI), 48 h

Row | SMILES | GI50 | TGI
44 | O=C(NC[C@H](O)CN1CCc2ccccc2C1)c1cc(NC2COC2)ncn1 | 12.9 µM | 94.1 µM
45 | COc1cc(Cl)cc(-c2nn(-c3cccc(NC(=O)c4ccc(N5CCOCC5)c(C(F)(F)F)c4)c3)cc2-c2ccncc2)c1 | 43.6 µM | > 100 µM
46 | OC[C@H]1O[C@@H]2O[C@@](COCc3ccccc3)([C@H](OCc3ccccc3)[C@H]2O)[C@@H]1OCc1ccccc1 | – | 31.8 µM
47 | Nc1ncc(-c2ccc3ncnc(Nc4ccc(F)c(Cl)c4)c3c2)cn1 | 2.31 µM | 13.4 µM

test system: BT-549 breast; assay: growth of human tumour cells (NCI), 48 h

Row | SMILES | GI50 | TGI
48 | O=C(NC[C@H](O)CN1CCc2ccccc2C1)c1cc(NC2COC2)ncn1 | 7.24 µM | 35.4 µM
49 | COc1cc(Cl)cc(-c2nn(-c3cccc(NC(=O)c4ccc(N5CCOCC5)c(C(F)(F)F)c4)c3)cc2-c2ccncc2)c1 | 89 µM | > 100 µM
50 | OC[C@H]1O[C@@H]2O[C@@](COCc3ccccc3)([C@H](OCc3ccccc3)[C@H]2O)[C@@H]1OCc1ccccc1 | – | 37.2 µM
51 | Nc1ncc(-c2ccc3ncnc(Nc4ccc(F)c(Cl)c4)c3c2)cn1 | 1.88 µM | 8.27 µM

test system: MOLT-4 leukemia; assay: growth of human tumour cells (NCI), 48 h

Row | SMILES | GI50 | TGI
52 | O=C(NC[C@H](O)CN1CCc2ccccc2C1)c1cc(NC2COC2)ncn1 | 15.1 µM | 49.3 µM
53 | COc1cc(Cl)cc(-c2nn(-c3cccc(NC(=O)c4ccc(N5CCOCC5)c(C(F)(F)F)c4)c3)cc2-c2ccncc2)c1 | 5.49 µM | > 100 µM
54 | OC[C@H]1O[C@@H]2O[C@@](COCc3ccccc3)([C@H](OCc3ccccc3)[C@H]2O)[C@@H]1OCc1ccccc1 | – | 21.9 µM
55 | Nc1ncc(-c2ccc3ncnc(Nc4ccc(F)c(Cl)c4)c3c2)cn1 | 2.24 µM | 9.33 µM
